# Laboratory results published in US20210009542A1 (Calico Life Sciences LLC, priority 2018, published 2021).
# Target: T1, His tagged PTPN2 (TC45) protein (Homo sapiens, UniProt P17706)
# T1 construct: made in house
# T1 sequence (P17706 with tags, fused parts or gaps isoform P17706-2): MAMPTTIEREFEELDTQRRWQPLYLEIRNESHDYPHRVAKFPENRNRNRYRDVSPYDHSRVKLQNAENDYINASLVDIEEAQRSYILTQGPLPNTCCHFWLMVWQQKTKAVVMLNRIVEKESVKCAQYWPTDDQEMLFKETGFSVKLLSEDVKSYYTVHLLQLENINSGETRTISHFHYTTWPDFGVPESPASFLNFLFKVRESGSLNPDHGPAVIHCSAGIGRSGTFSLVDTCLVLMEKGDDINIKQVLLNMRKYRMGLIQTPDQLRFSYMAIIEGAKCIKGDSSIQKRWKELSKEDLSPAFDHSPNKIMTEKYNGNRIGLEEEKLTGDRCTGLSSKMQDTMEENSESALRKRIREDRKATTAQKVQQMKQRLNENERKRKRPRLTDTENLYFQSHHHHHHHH
# Test: Mobility shift assay (MSA) for potency of PTPN2 inhibitors
# Format: biochemical
# Settings: read-out: PTPN2 MSA IC50
# Method: Compound activity was determined using in house His tagged PTPN2 (TC45) protein (SEQ ID NO: 1) in an in vitro enzymatic reaction. The enzymatic assay used to determine activity was a mobility shift assay using a LabChip EZ Reader by Caliper Life Sciences. The enzymatic reaction was carried out in assay buffer (50 mM HEPES pH 7.5, 1 mM EGTA, 10 mM EDTA, 0.01% Tween® 20, and 2 mM DTT). The compounds were dispensed on a white 384 well ProxiPlate™ (PerkinElmer Catalog #6008289) plate using the Labcyte Echo at varying concentrations (12 point, 1:3 dilution). The enzyme (at 0.5 nM) was incubated with compound for 10 minutes at room temperature. Then the substrate (phosphorylated insulin receptor probe sequence: ((OG488)-(NH—CH2—CH2—O—CH2—CH2—O—CH2—CO)-T-R-D-I-(PY)-E-T-D-Y-Y-R-K-K-NH2) (SEQ ID NO: 2) was added at […] to the plates and incubated for another 10 minutes at room temperature. Finally, a quench solution (water and 4-bromo-3-(2-oxo-2-propoxyethoxy)-5-(3-{[1-(phenylmethanesulfonyl)piperidin-4-yl]amino}phenyl)thiophene-2-carboxylic acid) was added to the plates, which were then run on the EZ Reader (excitation 488 nm, emission 530 nm) to measure % conversion (the amount of phosphorylated substrate which was de-phosphorylated by PTPN2). […] The % inhibition was then used to calculate the IC50 values.
row,Structure (SMILES),IC50
1,"N#CCc1ccc2cc(O)c(N3CC(=O)NS3(=O)=O)c(F)c2c1 [Compound 228, [8-fluoro-6-hydroxy-7-(1,1,4-trioxo-1λ^6,2,5-thiadiazolidin-2-yl)naphthalen-2-yl]acetonitrile]",1 to 10 nM
2,"COCc1ccc2cc(O)c(N3CC(=O)NS3(=O)=O)c(F)c2c1 [Compound 229, 5-[1-fluoro-3-hydroxy-7-(methoxymethyl)naphthalen-2-yl]-1λ^6,2,5-thiadiazolidine-1,1,3-trione]",10 to 100 nM
3,"CC1(COc2ccc3cc(O)c(N4CC(=O)NS4(=O)=O)c(F)c3c2)COC1 [Compound 230, 5-{1-fluoro-3-hydroxy-7-[(3-methyloxetan-3-yl)methoxy]naphthalen-2-yl}-1λ^6,2,5-thiadiazolidine-1,1,3-trione]",1 to 10 nM
4,"O=C1CN(c2c(O)c(Br)c3ccc(C4=CCN(S(=O)(=O)C5CC5)C4)cc3c2F)S(=O)(=O)N1 [Compound 231A, 5-{4-bromo-7-[1-(cyclopropanesulfonyl)-2,5-dihydro-1H-pyrrol-3-yl]-1-fluoro-3-hydroxynaphthalen-2-yl}-1λ^6,2,5-thiadiazolidine-1,1,3-trione]",1 to 10 nM
5,"O=C1CN(c2c(O)c(Br)c3ccc(-c4ccn(S(=O)(=O)C5CC5)c4)cc3c2F)S(=O)(=O)N1 [Compound 231B, 5-{4-bromo-7-[1-(cyclopropanesulfonyl)-1H-pyrrol-3-yl]-1-fluoro-3-hydroxynaphthalen-2-yl}-1λ^6,2,5-thiadiazolidine-1,1,3-trione]",1 to 10 nM
6,"COc1ccc2cc(O)c(N3CC(=O)NS3(=O)=O)c(F)c2c1Cl [Compound 234, 5-(8-chloro-1-fluoro-3-hydroxy-7-methoxynaphthalen-2-yl)-1λ^6,2,5-thiadiazolidine-1,1,3-trione]",10 to 100 nM
7,"O=C1CN(c2c(O)cc3ccc(C4CC4)cc3c2F)S(=O)(=O)N1 [Compound 236, 5-(7-cyclopropyl-1-fluoro-3-hydroxynaphthalen-2-yl)-1λ^6,2,5-thiadiazolidine-1,1,3-trione]",1 to 10 nM
8,"C=C(c1ccc2cc(O)c(N3CC(=O)NS3(=O)=O)c(F)c2c1)c1c(C)c(C)c(C)c(C)c1C [Compound 241, 5-{1-fluoro-3-hydroxy-7-[1-(pentamethylphenyl)ethenyl]naphthalen-2-yl}-1λ^6,2,5-thiadiazolidine-1,1,3-trione]",> 100 nM
9,"O=C1CN(c2c(O)cc3ccc(CC4CCN(CC(F)(F)F)C4)cc3c2F)S(=O)(=O)N1 (stereo not drawn) [Compound 251, 5-(1-fluoro-3-hydroxy-7-{[1-(2,2,2-trifluoroethyl)pyrrolidin-3-yl]methyl}naphthalen-2-yl)-1λ^6,2,5-thiadiazolidine-1,1,3-trione]",1 to 10 nM
10,"CC(C)CN(C)CCOc1ccc2cc(O)c(N3CC(=O)NS3(=O)=O)c(F)c2c1 [Compound 253, 5-(1-fluoro-3-hydroxy-7-{2-[methyl(2-methylpropyl)amino]ethoxy}naphthalen-2-yl)-1λ^6,2,5-thiadiazolidine-1,1,3-trione]",1 to 10 nM
11,"O=C1CN(c2c(O)cc3ccc(C4=CCNC4)cc3c2F)S(=O)(=O)N1 [Compound 265, 5-[7-(2,5-dihydro-1H-pyrrol-3-yl)-1-fluoro-3-hydroxynaphthalen-2-yl]-1λ^6,2,5-thiadiazolidine-1,1,3-trione]",1 to 10 nM
12,"O=C1CN(c2c(O)cc3ccc(-c4cccnc4)cc3c2F)S(=O)(=O)N1 [Compound 266, 5-[1-fluoro-3-hydroxy-7-(pyridin-3-yl)naphthalen-2-yl]-1λ^6,2,5-thiadiazolidine-1,1,3-trione]",1 to 10 nM
13,"O=C1CN(c2c(O)cc3ccc(CC4CNC4)cc3c2F)S(=O)(=O)N1 [Compound 267, 5-{7-[(azetidin-3-yl)methyl]-1-fluoro-3-hydroxynaphthalen-2-yl}-1λ^6,2,5-thiadiazolidine-1,1,3-trione]",10 to 100 nM
14,"O=C(CNc1ccc2cc(O)c(N3CC(=O)NS3(=O)=O)c(F)c2c1)NCCC1CC1 [Compound 268, N-(2-cyclopropylethyl)-2-{[8-fluoro-6-hydroxy-7-(1,1,4-trioxo-1λ^6,2,5-thiadiazolidin-2-yl)naphthalen-2-yl]amino}acetamide]",1 to 10 nM
15,"CNC(=O)CCCOc1ccc2cc(O)c(N3CC(=O)NS3(=O)=O)c(F)c2c1 [Compound 269, 4-{[8-fluoro-6-hydroxy-7-(1,1,4-trioxo-1λ^6,2,5-thiadiazolidin-2-yl)naphthalen-2-yl]oxy}-N-methylbutanamide]",1 to 10 nM
16,"CCNC(=O)NCCOc1ccc2cc(O)c(N3CC(=O)NS3(=O)=O)c(F)c2c1 [Compound 270, N-ethyl-N′-(2-{[8-fluoro-6-hydroxy-7-(1,1,4-trioxo-1λ^6,2,5-thiadiazolidin-2-yl)naphthalen-2-yl]oxy}ethyl)urea]",1 to 10 nM
17,"O=C1CN(c2c(O)cc3ccc(C4=CCN(CC(F)(F)F)CC4)cc3c2F)S(=O)(=O)N1 [Compound 275, 5-{1-fluoro-3-hydroxy-7-[1-(2,2,2-trifluoroethyl)-1,2,3,6-tetrahydropyridin-4-yl]naphthalen-2-yl}-1λ^6,2,5-thiadiazolidine-1,1,3-trione]",1 to 10 nM
18,"O=C(O)CNc1ccc2cc(O)c(N3CC(=O)NS3(=O)=O)c(F)c2c1 [Compound 280, {[8-fluoro-6-hydroxy-7-(1,1,4-trioxo-1λ^6,2,5-thiadiazolidin-2-yl)naphthalen-2-yl]amino}acetic acid]",10 to 100 nM
19,"CS(=O)(=O)N1CCC(Oc2ccc3cc(O)c(N4CC(=O)NS4(=O)=O)c(F)c3c2)CC1 [Compound 284, 5-(1-fluoro-3-hydroxy-7-{[1-(methanesulfonyl)piperidin-4-yl]oxy}naphthalen-2-yl)-1λ^6,2,5-thiadiazolidine-1,1,3-trione]",1 to 10 nM
20,"COCCS(=O)(=O)N1CC=C(c2ccc3cc(O)c(N4CC(=O)NS4(=O)=O)c(F)c3c2)C1 [Compound 286, 5-{1-fluoro-3-hydroxy-7-[1-(2-methoxyethanesulfonyl)-2,5-dihydro-1H-pyrrol-3-yl]naphthalen-2-yl}-1λ^6,2,5-thiadiazolidine-1,1,3-trione]",< 1 nM
21,"O=C1CN(c2c(O)cc3ccc(C4=CCN(S(=O)(=O)CCC(F)(F)F)C4)cc3c2F)S(=O)(=O)N1 [Compound 287, 5-{1-fluoro-3-hydroxy-7-[1-(3,3,3-trifluoropropane-1-sulfonyl)-2,5-dihydro-1H-pyrrol-3-yl]naphthalen-2-yl}-1λ^6,2,5-thiadiazolidine-1,1,3-trione]",< 1 nM
22,"O=C1CN(c2c(O)cc3ccc(C4=CCN(S(=O)(=O)CCCC(F)(F)F)C4)cc3c2F)S(=O)(=O)N1 [Compound 290, 5-{1-fluoro-3-hydroxy-7-[1-(4,4,4-trifluorobutane-1-sulfonyl)-2,5-dihydro-1H-pyrrol-3-yl]naphthalen-2-yl}-1λ^6,2,5-thiadiazolidine-1,1,3-trione]",< 1 nM
23,"CCCCS(=O)(=O)N1CC=C(c2ccc3cc(O)c(N4CC(=O)NS4(=O)=O)c(F)c3c2)C1 [Compound 291, 5-{7-[1-(butane-1-sulfonyl)-2,5-dihydro-1H-pyrrol-3-yl]-1-fluoro-3-hydroxynaphthalen-2-yl}-1λ^6,2,5-thiadiazolidine-1,1,3-trione]",< 1 nM
24,"N#CCCCCS(=O)(=O)N1CC=C(c2ccc3cc(O)c(N4CC(=O)NS4(=O)=O)c(F)c3c2)C1 [Compound 293, 5-{3-[8-fluoro-6-hydroxy-7-(1,1,4-trioxo-1λ^6,2,5-thiadiazolidin-2-yl)naphthalen-2-yl]-2,5-dihydro-1H-pyrrole-1-sulfonyl}pentanenitrile]",< 1 nM
25,"O=C1CN(c2c(O)cc3ccc(C4=CCN(S(=O)(=O)c5ccoc5)C4)cc3c2F)S(=O)(=O)N1 [Compound 312, 5-{1-fluoro-7-[1-(furan-3-sulfonyl)-2,5-dihydro-1H-pyrrol-3-yl]-3-hydroxynaphthalen-2-yl}-1λ^6,2,5-thiadiazolidine-1,1,3-trione]",< 1 nM
26,"O=C1CN(c2c(O)cc3ccc(C4=CCN(S(=O)(=O)c5ccsc5)C4)cc3c2F)S(=O)(=O)N1 [Compound 314, 5-{1-fluoro-3-hydroxy-7-[1-(thiophene-3-sulfonyl)-2,5-dihydro-1H-pyrrol-3-yl]naphthalen-2-yl}-1λ^6,2,5-thiadiazolidine-1,1,3-trione]",< 1 nM
27,"O=C1CN(c2c(O)cc3ccc(C4=CCN(S(=O)(=O)c5ccccc5)C4)cc3c2F)S(=O)(=O)N1 [Compound 315, 5-{7-[1-(benzenesulfonyl)-2,5-dihydro-1H-pyrrol-3-yl]-1-fluoro-3-hydroxynaphthalen-2-yl}-1λ^6,2,5-thiadiazolidine-1,1,3-trione]",< 1 nM
